Values after ≈ are worked out from the molar mass of the structure shown. Read-outs that look alike come from different tables or passages of the source. Marks after values point to notes of the source that are not given here.
Key:
[1] = cited from earlier work; for Solubility (BCS classification): based on the compound's BCS classification; for Lipophilicity (log P): experimental values
[2] = Shake-flask drug solubility in absence of excipient (reference solubility); format: physicochemical; details: for solubility at 0.5 h: 37 °C, read-out: Solubility of pure drug
Procedure: (§1) Compendial media (0.1 N HCl pH 1, phosphate buffer pH 6.8) were prepared according to the method described in the European Pharmacopoeia ([43]). Fasted State Simulated Gastric Fluid (FaSSGF) and Fasted State Simulated Intestinal Fluid (FaSSIF-V2) were prepared as described by Jantratid et al. ([44]).
(§2) Drug solubility studies in the absence and presence of excipient were performed in triplicate using the shake-flask method ([45]). Drug excess amount and 2% w/w or 5% w/w of each excipient were weighed and placed in centrifuge tubes. […] The physical mixtures were vortexed for 3 min. Five millilitres of each medium was added in the tubes and the samples were placed in a shaking water bath (37 °C, 200 strokes per minute (spm)). […] Filter adsorption studies were prior performed in triplicate for each drug. […] Filtered samples were further diluted (if needed) with the corresponding medium and analysed by HPLC (Supplementary Table I). Analytical procedures for drug quantification in the samples were modifications of already published methods. Drug quantification was made based on calibration curves. Standards were formulated from concentrated stock solutions consisting of drug dissolved in MeOH. As drug solubility can be influenced by the changes in the pH of solutions by presence of dissolved drug ([38]), the pH of samples after the completion of each experiment was measured. Drug solubility was calculated based on the sample drug concentration measured.

[3] = Relative effect (RE) of HPMC brands on drug apparent solubility, shake-flask with drug/excipient physical mixtures; format: physicochemical; details: FaSSIF-V2
Procedure: as §1
as §2, with “Standards were formulated from concentrated stock solutions consisting of drug dissolved in MeOH.” left out

[4] = Theoretical % of drug ionized (Henderson-Hasselbalch equation at the pH of each medium); format: physicochemical

| SMILES | Solubility (BCS classification) [1] | pKa [1] | Lipophilicity (log P) [1] | also measured |
| --- | --- | --- | --- | --- |
| CCC(C)n1ncn(-c2ccc(N3CCN(c4ccc(OCC5COC(Cn6cncn6)(c6ccc(Cl)cc6Cl)O5)cc4)CC3)cc2)c1=O (centres unmarked) [ITZ, itraconazole] | Low ([40]) | Weak base (pKa=4.5) ([39]) | 6.20 ([39]) | solubility at 24 h ([2]; aqueous buffer, thermodynamic from solid, Phosphate buffer pH 6.8, 37 °C, mean ± SD, n = 3): < 0.015 µg/mL |
| CC(=O)Nc1ccc(O)cc1 [PRC, paracetamol] | – | Neutral (pKa=9.38) ([28]) | 0.20 ([28]) | – |
| NC(=O)N1c2ccccc2C=Cc2ccccc21 [CBZ, carbamazepine] | Low ([30]) | – | 2.45 ([29]) | pKa ([1]; ref DrugBank): Neutral (pKa=15)^a; Relative effect (RE) on drug apparent solubility ([3]; all the studied HPMC brands, 24 h): approximately 60%; solubility at 0.5 h ([2]; pH 1.6, fassgf or other biorelevant, thermodynamic from solid, FaSSGF, 0.5 h): 387 µg/mL (≈ 1640 µM); solubility at 0.5 h ([2]; pH 6.5, thermodynamic from solid, FaSSIF-V2, 0.5 h): 307 µg/mL (≈ 1300 µM) |
| CC(C)Cc1ccc(C(C)C(=O)O)cc1 (centres unmarked) [IBU, Ibuprofen] | – | – | 4.00 ([33]) | – |
| OCCN(CCO)c1nc(N2CCCCC2)c2nc(N(CCO)CCO)nc(N3CCCCC3)c2n1 [DPL, dipyridamole] | Low ([38]) | – | – | % of drug ionized ([4]; FaSSIF-V2): 34%; % of drug ionized ([4]; phosphate buffer pH 6.8): 20.1%; Effect of HPMC presence on drug apparent solubility [3]: did not affect |
